Legend:
[1] = system: human leukemia cells (HL-60 cells); assay: HL-60 cell differentiation (NBT reduction); format: cell-based; settings: NBT assay; for potency in promoting the differentiation of leukemia cells: HL-60 cells to monocytes, FIG. 3; for percent of HL-60 cells induced to differentiate: concentration 1×10^−7 M
Procedure: FIG. 3—EL-60 Cell Differentiation
The differentiation of HL-60 promyelocytic into monocytes was determined as described by Ostrem et al (J. Biol. Chem. 262, 14164-14171, 1987).
Differentiation activity was assessed by a standard differentiation assay, abbreviated as NBT reduction (nitroblue tetrazolium reduction). The assay was conducted according to known procedures, as given, for example, by DeLuca et al U.S. Pat. No. 4,717,721 and Ostrem et al, J. Biol. Chem. 262, 14164, 1987. For the assay, the differentiation activity of the test compounds is expressed in terms of the percent of HL-60 cells having differentiated to normal cells in response to a given concentration of test compound.

[2] = system: intestinal calcium transport; assay: Intestinal calcium transport, everted gut sac method; format: in vivo, Sprague-Dawley rats; settings: rats, four consecutive ip doses, FIG. 5
Procedure: (§1) FIGS. 5 and 6—Intestinal Calcium Transport and Bone Calcium Mobilization
(§2) Male, weanling Sprague-Dawley rats were placed on Diet 11 (0.47% Ca) diet+AEK for one week followed by Diet 11 (0.02% Ca)+AEK for 3 weeks. The rats were then switched to a diet containing 0.47% Ca for one week followed by two weeks on a diet containing 0.02% Ca. Dose administration began during the last week on 0.02% calcium diet. Four consecutive ip doses-were given approximately 24 hours apart. Twenty-four hours after the last dose, blood was collected from the severed neck and the concentration of serum calcium determined as a measure of bone calcium mobilization. The first 10 cm of the intestine was also collected for intestinal calcium transport analysis using the everted gut sac method.

[3] = system: 24-hydroxylase (24OHase) gene promoter; assay: Transcription activation, 24-hydroxylase promoter luciferase reporter in ROS 17/2.8 (bone) cells; format: cell-based; settings: ROS 17/2.8 cells, luciferase 16 hours after dosing, FIG. 4
Procedure: FIG. 4—Transcription Activation
Transcriptional activity was measured in ROS 17/2.8 (bone) cells that were stably transfected with a 24-hydroxylase (24OHase) gene promoter upstream of a luciferase reporter gene (Arbour et al., 1998). Cells were given a range of doses. Sixteen hours after dosing the cells were harvested and luciferase activities were measured using a luminometer.
“RLU” in FIG. 4 refers to relative luciferase units.

[4] = system: bone calcium mobilization; assay: Bone calcium mobilization (serum calcium); format: in vivo, Sprague-Dawley rats; settings: rats, four consecutive ip doses, FIG. 6
Procedure: as §1, §2

[5] = target: T1, recombinantly produced rat receptor (1α,25-dihydroxyvitamin D receptor) (Rattus norvegicus, UniProt P13053); assay: Competitive VDR binding; settings: FIGS. 1 and 2
T1 construct: made in house
T1 sequence (P13053 1-423): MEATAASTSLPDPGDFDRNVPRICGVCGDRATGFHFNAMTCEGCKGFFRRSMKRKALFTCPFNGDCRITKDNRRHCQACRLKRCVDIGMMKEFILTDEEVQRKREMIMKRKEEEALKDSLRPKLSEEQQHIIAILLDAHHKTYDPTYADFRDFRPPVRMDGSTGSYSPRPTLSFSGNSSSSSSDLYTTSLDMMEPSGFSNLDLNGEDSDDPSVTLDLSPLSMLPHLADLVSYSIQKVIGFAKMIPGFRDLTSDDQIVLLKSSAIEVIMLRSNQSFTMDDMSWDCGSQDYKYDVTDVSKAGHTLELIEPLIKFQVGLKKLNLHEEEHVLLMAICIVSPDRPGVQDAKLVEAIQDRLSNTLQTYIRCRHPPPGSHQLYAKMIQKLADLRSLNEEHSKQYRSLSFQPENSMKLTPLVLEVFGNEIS
Procedure: FIGS. 1 and 2—Competitive VDR Binding
Competitive binding of the analogs to the porcine intestinal receptor was carried out by the method described by Dame et al (Biochemistry 25, 4523-4534, 1986), except the recombinantly produced rat receptor was used as the receptor (see Vanhooke et al., Biochemistry, in press, 2004).

Row | Compound | potency in promoting the differentiation of leukemia cells [1] | percent of HL-60 cells induced to differentiate [1] | intestinal calcium transport activity [2] | intestinal calcium transport activity compared with 2MD [2] | transcriptional activity in bone cells [3] | ability to mobilize calcium from bone [4] | bone calcium mobilization compared with 2MD [4] | activity in binding to the 1α,25-hydroxyvitamin D3 rat receptor [5]
1 | 2-[(3′-methoxymethoxy)propylidene]-19-nor-1α,25-dihydroxyvitamin D3 [F-Wit] | as potent as 1α,25-dihydroxyvitamin D3 and 2MD | the same degree of differentiation | relatively high intestinal calcium transport activity | more active than 2M | significant transcriptional activity | significant ability to mobilize calcium from bone | less active in this regard than 2MD | very active
2 | C=C1/C(=C\C=C2/CCC[C@]3(C)[C@@H]([C@H](C)CCCC(C)(C)O)CC[C@@H]23)C[C@@H](O)C[C@@H]1O [1α,25-dihydroxyvitamin D3, reference compound] | – | ~90% | – | – | – | – | – | –
3 | (20R)-1α,25-dihydroxy-2-[3′-hydroxypropylidene]-19-norvitamin D3 [1AGR] | as potent as 1α,25-dihydroxyvitamin D3 and 2MD | the same degree of differentiation | relatively high intestinal calcium transport activity | more active than 2M | significant transcriptional activity | significant ability to mobilize calcium from bone | less active in this regard than 2MD | very active
4 | (20S)-1α,25-dihydroxy-2-[3′-hydroxypropylidene]-19-norvitamin D3 [1AGS] | as potent as 1α,25-dihydroxyvitamin D3 and 2MD | the same degree of differentiation | relatively high intestinal calcium transport activity | more active than 2M | significant transcriptional activity | significant ability to mobilize calcium from bone | less active in this regard than 2MD | very active

— patent US20060293291A1, “2-Propylidene-19-nor-vitamin d compounds” (priority 2003, published 2006)
